Consider seven compounds from ChEMBL document CHEMBL4321813, “Discovery of GSK3527497: A Candidate for the Inhibition of Transient Receptor Potential Vanilloid-4 (TRPV4)” (J Med Chem, 2019).

Broadly, the IC50 is the midpoint of a concentration-inhibition curve. As usually defined, the solubility is how much of the substance goes into solution per volume. As usually defined, the bioavailability is dose-corrected exposure relative to a reference, in per cent. Low readings indicate poor availability, high ones good availability. As a reminder, the MRT is the average time that molecules of a dose stay in the body. A word on the clearance: it is a measure of how efficiently the substance is removed, as volume per time. As usually defined, the chromatographic logD is a lipophilicity value derived from retention on a column. Higher therefore signals a more lipophilic compound. What is called fraction unbound is the share of the substance not bound to proteins or other matrix. As a reminder, the Papp is a coefficient for how fast a substance crosses the barrier.

The target of series [1] is T1, Transient receptor potential cation channel subfamily V member 4 (Homo sapiens, UniProt Q9HBA0). The series can be described thus: Antagonist activity at human TRPV4.
T1 sequence (Q9HBA0 whole entry): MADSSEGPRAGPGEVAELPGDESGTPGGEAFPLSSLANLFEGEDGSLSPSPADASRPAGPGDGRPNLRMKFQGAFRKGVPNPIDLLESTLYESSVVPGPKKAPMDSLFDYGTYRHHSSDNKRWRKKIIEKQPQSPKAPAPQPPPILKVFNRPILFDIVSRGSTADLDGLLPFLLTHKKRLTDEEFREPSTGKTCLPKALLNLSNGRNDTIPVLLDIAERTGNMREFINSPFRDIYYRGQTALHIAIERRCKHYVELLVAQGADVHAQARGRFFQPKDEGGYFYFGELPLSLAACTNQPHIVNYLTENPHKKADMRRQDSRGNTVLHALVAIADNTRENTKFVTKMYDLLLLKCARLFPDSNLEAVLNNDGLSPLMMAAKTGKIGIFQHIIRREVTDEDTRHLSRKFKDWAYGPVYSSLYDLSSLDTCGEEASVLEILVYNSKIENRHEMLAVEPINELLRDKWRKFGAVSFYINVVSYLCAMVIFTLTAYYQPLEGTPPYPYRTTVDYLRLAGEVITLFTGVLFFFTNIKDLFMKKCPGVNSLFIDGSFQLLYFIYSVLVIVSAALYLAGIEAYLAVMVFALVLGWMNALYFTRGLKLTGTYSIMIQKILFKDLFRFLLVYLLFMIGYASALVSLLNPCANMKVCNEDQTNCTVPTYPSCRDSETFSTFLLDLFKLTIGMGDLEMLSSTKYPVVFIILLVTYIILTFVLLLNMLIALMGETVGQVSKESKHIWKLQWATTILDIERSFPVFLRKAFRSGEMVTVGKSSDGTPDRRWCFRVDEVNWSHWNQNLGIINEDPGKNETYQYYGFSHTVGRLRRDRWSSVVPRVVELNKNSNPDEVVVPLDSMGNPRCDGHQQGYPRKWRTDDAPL
Series [2] in a line: Solubility of the compound in FaSSIF measured after 4 hrs. The class given is physicochemical.
A short description of series [3]: Volume of distribution at steady state in Sprague-Dawley rat at 1 mg/kg, iv administered as 30 mins infusion or 1 to 2 mg/kg, po by HPLC-MS/MS analysis. The class given is ADME, organism-based. The following applies: in vivo, read-out: Vdss.
A short description of series [4]: Unbound volume of distribution at steady state in Sprague-Dawley rat at 1 mg/kg, iv administered as 30 mins infusion or 1 to 2 mg/kg, po by HPLC-MS/MS analysis. The class given is ADME, organism-based. The following applies: in vivo, 0.5 h.
Series [5] in a line: Ratio of Cmax to Cmin in human. It counts as ADME.
Series [6] can be described thus: Unbound AUC in human. It counts as ADME.
The nature of series [7]: Dose normalized AUC in Sprague-Dawley rat at 100 mg/kg, po using crystalline solid form of sample by HPLC-MS/MS analysis. It counts as ADME, organism-based. The following applies: in vivo.
A short description of series [8]: Oral bioavailability in Sprague-Dawley rat at 100 mg/kg using crystalline solid form of sample by HPLC-MS/MS analysis. Particulars: in vivo. The class given is ADME, organism-based.
Series [9] is described as follows: Dose normalized AUC in Sprague-Dawley rat at 100 mg/kg, po using amorphous spray dried dispersion sample by HPLC-MS/MS analysis. The class given is ADME, organism-based. The following applies: in vivo.
Series [10] is described as follows: Oral bioavailability in Sprague-Dawley rat at 100 mg/kg using amorphous spray dried dispersion sample by HPLC-MS/MS analysis. Particulars: in vivo. It counts as ADME, organism-based.
Series [11] deals with Rattus norvegicus. The series can be described thus: Ratio of dose normalized AUC in Sprague-Dawley rat at 100 mg/kg, po using amorphous spray dried dispersion sample to dose normalized AUC in Sprague-Dawley rat at 100 mg/kg, po using crystalline solid form of sample. The class given is ADME, organism-based. Particulars: in vivo.
The nature of series [12]: Dose normalized AUC in Sprague-Dawley rat at 1 mg/kg, po by HPLC-MS/MS analysis. Particulars: in vivo. The class given is ADME, organism-based.
Series [13] in a line: Ratio of unbound clearance in Sprague-Dawley rat at 1 mg/kg, iv administered as 30 mins infusion to unbound clearance in dog. It counts as ADME, organism-based. The following applies: in vivo, 0.5 h.
The nature of series [14]: Drug metabolism in rat hepatocytes assessed as GSH-mediated sulfonamide cleavage by measuring 2-amino-5-[[2-(carboxymethylamino)-1-[[2-cyano-4-(trifluoromethyl)phenyl]sulfanylmethyl]-2-oxo-ethyl]amino]-5-oxo-pentanoic acid formation by LC-MS/MS analysis. It counts as ADME, cell-based, Hepatocyte.
A short description of series [15]: Drug metabolism in rat hepatocytes assessed as rearomatization/conjugation by measuring metabolite formation by LC-MS/MS analysis. The class given is ADME, cell-based, Hepatocyte.
Series [16] in a line: Drug metabolism in rat hepatocytes assessed as oxidation of arene oxide metabolite by measuring 2-[(3R,4S)-4-(4-cyano-3-fluoro-phenoxy)-3-hydroxy-3-(hydroxymethyl)pyrrolidin-1-yl]sulfonyl-3,4-dihydroxy-5-(trifluoromethyl)benzonitrile formation by LC-MS/MS analysis. It counts as ADME, cell-based, Hepatocyte.
The nature of series [17]: Mean residence time in dog. The class given is ADME, Canis lupus familiaris. The following applies: in vivo.
The nature of series [18]: Clearance in dog. The class given is ADME, Canis lupus familiaris. Particulars: in vivo.
Series [19] concerns the target T1, Transient receptor potential cation channel subfamily V member 4. The series can be described thus: Antagonist activity at BacMam virus expressing human TRPV4 transduced in BHK/AC9 or HEK MSR2 cells assessed as inhibition of GSK634775-induced Ca2+ flux preincubated for 10 mins followed by agonist addition by Fluo-4 AM dye based FLIPR assay. The class given is cell-based. (In general: Calcium assays in cells follow changes in intracellular calcium, usually with a dye or a luminescent sensor.)

A short description of series [20]: Lipophilicity, log D of the compound at pH 7.4 by chromatographic method. The following applies: buffer. It counts as physicochemical.
Series [21] can be described thus: MRT in Sprague-Dawley rat at 1 mg/kg, iv administered as 30 mins infusion by HPLC-MS/MS analysis. It counts as ADME, organism-based. The following applies: in vivo.
Series [22] in a line: Clearance in Sprague-Dawley rat at 1 mg/kg, iv administered as 30 mins infusion by HPLC-MS/MS analysis. The class given is ADME, organism-based. The following applies: in vivo.
The nature of series [23]: Oral bioavailability in Sprague-Dawley rat at 1 to 2 mg/kg by HPLC-MS/MS analysis. It counts as ADME, organism-based. The following applies: in vivo.
The nature of series [24]: Protein binding in rat plasma assessed as unbound fraction. It counts as ADME, cell-free.
The nature of series [25]: Unbound clearance in Sprague-Dawley rat at 1 mg/kg, iv administered as 30 mins infusion by HPLC-MS/MS analysis. The following applies: in vivo, 0.5 h. It counts as ADME, organism-based.
Series [26] can be described thus: Oral bioavailability in Sprague-Dawley rat at 1 mg/kg by HPLC-MS/MS analysis. The following applies: in vivo. It counts as ADME, organism-based.
The nature of series [27]: Apparent permeability in dog MDCK cells. It counts as ADME, cell-based, Canis lupus familiaris.
Series [28] is described as follows: Volume of distribution at steady state in dog. It counts as ADME, Canis lupus familiaris. The following applies: in vivo, read-out: Vdss.
Series [29] can be described thus: Oral bioavailability in dog. It counts as ADME, organism-based, Canis lupus familiaris. Particulars: in vivo.
Series [30] in a line: Protein binding in dog plasma assessed as unbound fraction. The class given is ADME, cell-free, Canis lupus familiaris.
Series [31] can be described thus: Unbound clearance in dog. The class given is ADME, Canis lupus familiaris. Particulars: in vivo.
Series [32] in a line: Unbound volume of distribution at steady state in dog. Particulars: in vivo. It counts as ADME, Canis lupus familiaris.

Structures are written as SMILES. Converted amounts (≈) assume the structure as drawn.

Turning to `CC(C)Nc1nc2c(C(=O)N(C)C)c(Cl)c(Cl)cc2n1C1CCN(c2ccc(C(C)(C)C#N)cc2)CC1`, the IC50 in series [1] was 32 nM.

For the compound `N#Cc1ccc(O[C@H]2CN(S(=O)(=O)c3ccc(Cl)cc3Cl)C[C@@]2(O)CO)cc1F`, the concentration in solution in [2] (solubility at 4 h) came to 19 µg/mL (≈ 41.2 µM). Also, the Vd in [3] was 3.2 L/kg. In addition, the Vduss in series [4] was 54 L/kg. For the same compound, the Ratio in series [5] is listed as 15. This compound displayed a fAUC in series [6] of 240 ng·h/mL.

`N#Cc1ccc(O[C@H]2CN(S(=O)(=O)c3ccc(C(F)(F)F)cc3C#N)C[C@@]2(O)CO)cc1F` gave a solubility at 4 h in series [2] of 25 µg/mL (≈ 51.5 µM). In addition, the Vd in series [3] amounted to 3.6 L/kg. For the same compound, the Vduss in series [4] came out at 73 L/kg. In addition, the AUC/dose in [7] stood at 0.0021 kg·h/L; in series [9] it was 0.038 kg·h/L; in series [12], 0.148 kg·h/L. The compound further showed a F in series [8] of 1%. Moreover, in [10], the bioavailability was found to be 18%. The “Ratio AUC” value in series [11] was 18. Further, the values for the Ratio in [13] and in series [5] were 22 and 30, respectively. Besides, the Drug metabolism result in series [14], in [15] and in series [16] was “Metabolite_Detected” in each case.

As to `N#Cc1ccc(O[C@H]2CN(S(=O)(=O)c3ccc(Cl)cn3)C[C@@]2(O)CO)cc1F`, the MRT stood at 7.8 h in series [17] and 1.2 h in series [21]. Moreover, the clearance is 4.1 mL/min/kg in [18] and 30 mL/min/kg in series [22]. In [19], the concentration for half-maximal inhibition (IC50) is 34 nM. This compound returned a chromatographic logD in series [20] of 3.4. Also, the solubility at 4 h in series [2] stood at 26 µg/mL (≈ 60.8 µM). The Vd in [3] came to 2.2 L/kg; in series [28], 1.9 L/kg. Further, the bioavailability in series [23] is 100%; in series [8] (Sprague-Dawley) it was 7%; in [10], 79%; in [26] it was 100%; in series [29], 100%. For the same compound, the free fraction (fraction unbound) turned out to be 0.18 in series [24] and 0.34 in series [30]. Besides, the CL free in series [25] was 170 mL/min/kg; in series [31], 12 mL/min/kg. Besides, the Vduss in [4] was found to be 12 L/kg; in series [32] it was 5.5 L/kg. For the same compound, the AUC/dose was 0.043 kg·h/L in series [7], 0.5 kg·h/L in series [9] and 0.63 kg·h/L in series [12]. Also, the Papp in series [27] was 0.22 ×10⁻⁶ cm/s. In series [13], the Ratio came out at 14.

In the case of `N#Cc1ccc(O[C@H]2CN(S(=O)(=O)c3ccc(Cl)cn3)C[C@]2(O)CO)cc1F`, in series [19], the IC50 came out at 190 nM. The chromatographic logD in series [20] worked out at 3.5. The compound also yielded a solubility at 4 h in [2] of 130 µg/mL (≈ 304 µM). Further, in [21], the MRT stood at 3.3 h. In series [25], this compound registered a CL free of 150 mL/min/kg.

Turning to `N#Cc1ccc(O[C@H]2CN(S(=O)(=O)c3ccc(C(F)(F)F)cc3)C[C@@]2(O)CO)cc1F`, the IC50 in [19] came out at 100 nM. Further, the chromatographic logD in series [20] worked out at 4.5. For the same compound, in [2], the solubility at 4 h turned out to be 5 µg/mL (≈ 10.9 µM). Besides, the MRT in series [21] was found to be 2 h. This compound also displayed a clearance in series [22] of 50 mL/min/kg. In [3], the Vd came to 5.9 L/kg. Besides, the bioavailability in [23] is 100%. For the same compound, the fraction unbound in [24] worked out at 0.033. In series [25], the CL free worked out at 1500 mL/min/kg. For the same compound, the Vduss in series [4] is 180 L/kg.

In the case of `N#Cc1ccc(O[C@H]2CN(S(=O)(=O)c3ccccc3C#N)C[C@@]2(O)CO)cc1F`, the IC50 in series [19] was 3.8 nM. Also, the chromatographic logD in [20] came to 3.4. In series [2], this compound had a solubility at 4 h of 20 µg/mL (≈ 47.9 µM). This compound registered a mean residence time (MRT) in series [21] of 0.4 h. The clearance in series [22] was found to be 39 mL/min/kg. Moreover, the Vd in series [3] worked out at 0.9 L/kg. This compound returned a bioavailability in series [23] of 32%. The fraction unbound in series [24] was determined as 0.197. Moreover, in [25], the CL free stood at 200 mL/min/kg. This compound gave a Vduss in series [4] of 4.6 L/kg.
